Results reported in the NIST ThermoML archive (doi:10.1016/j.fluid.2008.03.011).
Numbers after ± are expanded uncertainties.

Legend:
[1] = excess molar enthalpy (molar enthalpy of mixing); xn = mol fraction of the nth substance listed; conditions: 363.15 K, Liquid, Flow calorimetry
[2] = activity coefficient (dimensionless); of the first substance listed, at infinite dilution; xn = mol fraction of the nth substance listed; conditions: 101 kPa, Liquid, x1 = 0
[3] = activity coefficient (dimensionless); of the first substance listed, at infinite dilution; wn = mass fraction of the nth substance listed; conditions: 101 kPa, Liquid, dilutor technique, w1 = 0

CCCCCC[n+]1ccn(C)c1.O=S(=O)([N-]S(=O)(=O)C(F)(F)F)C(F)(F)F + CCCCCCCC
excess molar enthalpy ([1]; 1548 kPa, x2 = 0.0486): 0.0487 ± 0.00201 kcal/mol
excess molar enthalpy ([1]; 1548 kPa, x2 = 0.095): 0.0882 ± 0.00359 kcal/mol
excess molar enthalpy ([1]; 1548 kPa, x2 = 0.1392): 0.108 ± 0.0043 kcal/mol
excess molar enthalpy ([1]; 1548 kPa, x2 = 0.1814): 0.116 ± 0.00478 kcal/mol
excess molar enthalpy ([1]; 1548 kPa, x2 = 0.2217): 0.111 ± 0.00454 kcal/mol
excess molar enthalpy ([1]; 1548 kPa, x2 = 0.2603): 0.106 ± 0.0043 kcal/mol
excess molar enthalpy ([1]; 1548 kPa, x2 = 0.3327): 0.0959 ± 0.00382 kcal/mol
excess molar enthalpy ([1]; 1548 kPa, x2 = 0.3993): 0.0877 ± 0.00359 kcal/mol
excess molar enthalpy ([1]; 1548 kPa, x2 = 0.4608): 0.0791 ± 0.00335 kcal/mol
excess molar enthalpy ([1]; 1548 kPa, x2 = 0.5707): 0.0636 ± 0.00263 kcal/mol
excess molar enthalpy ([1]; 1548 kPa, x2 = 0.666): 0.0483 ± 0.00201 kcal/mol
excess molar enthalpy ([1]; 1548 kPa, x2 = 0.7495): 0.0384 ± 0.0016 kcal/mol
excess molar enthalpy ([1]; 1548 kPa, x2 = 0.8568): 0.0227 ± 0.000956 kcal/mol

Cc1ccccc1 [toluene] + CCCCCC[n+]1ccn(C)c1.O=S(=O)([N-]S(=O)(=O)C(F)(F)F)C(F)(F)F
activity coefficient ([2]; 303.15 K, dilutor technique): 0.85 ± 0.06
activity coefficient ([2]; 313.15 K, dilutor technique): 0.95 ± 0.06
activity coefficient ([2]; 323.15 K, dilutor technique): 1.05 ± 0.07
activity coefficient ([2]; 333.15 K, dilutor technique): 1.14 ± 0.07

CC1CCCCC1 [methylcyclohexane] + CCCCCCCC[N+]1(C)CCCC1.O=S(=O)([N-]S(=O)(=O)C(F)(F)F)C(F)(F)F
activity coefficient ([2]; 303.15 K, dilutor technique): 4.59 ± 0.41
activity coefficient ([2]; 313.15 K, dilutor technique): 4.41 ± 0.39
activity coefficient ([2]; 323.15 K, dilutor technique): 4.29 ± 0.38
activity coefficient ([2]; 333.15 K, dilutor technique): 4.18 ± 0.37

CCO [ethanol] + CCOS(=O)(=O)[O-].CCn1cc[n+](C)c1
activity coefficient ([2]; 323.15 K, dilutor technique): 0.57 ± 0.05
activity coefficient ([2]; 333.15 K, dilutor technique): 0.6 ± 0.05
activity coefficient ([2]; 343.15 K, dilutor technique): 0.65 ± 0.05
activity coefficient ([2]; 353.15 K, dilutor technique): 0.7 ± 0.05

CCO [ethanol] + CCCC[N+]1(C)CCCC1.O=S(=O)([O-])C(F)(F)F
activity coefficient ([2]; 313.15 K, dilutor technique): 0.95 ± 0.06
activity coefficient ([2]; 323.15 K, dilutor technique): 0.92 ± 0.06
activity coefficient ([2]; 333.15 K, dilutor technique): 0.88 ± 0.06
activity coefficient ([2]; 343.15 K, dilutor technique): 0.86 ± 0.06

CCO [ethanol] + CCCCCCn1cc[n+](C)c1.O=S(=O)([O-])C(F)(F)F
activity coefficient ([2]; 303.15 K, dilutor technique): 1.05 ± 0.07
activity coefficient ([2]; 313.15 K, dilutor technique): 1 ± 0.06
activity coefficient ([2]; 323.15 K, dilutor technique): 0.94 ± 0.06
activity coefficient ([2]; 333.15 K, dilutor technique): 0.86 ± 0.06

Cc1ccccc1 [toluene] + CCCCCCn1cc[n+](C)c1.O=S(=O)([O-])C(F)(F)F
activity coefficient ([2]; 303.15 K, Dilutor technique): 1.38 ± 0.09
activity coefficient ([2]; 313.15 K, Dilutor technique): 1.52 ± 0.1
activity coefficient ([2]; 323.15 K, Dilutor technique): 1.65 ± 0.12
activity coefficient ([2]; 333.15 K, Dilutor technique): 1.75 ± 0.12

Cc1ccccc1 [toluene] + CCCCCCCC[N+]1(C)CCCC1.O=S(=O)([N-]S(=O)(=O)C(F)(F)F)C(F)(F)F
activity coefficient ([2]; 303.15 K, dilutor technique): 0.67 ± 0.05
activity coefficient ([2]; 313.15 K, dilutor technique): 0.73 ± 0.05
activity coefficient ([2]; 323.15 K, dilutor technique): 0.8 ± 0.05
activity coefficient ([2]; 333.15 K, dilutor technique): 0.86 ± 0.06

CCCCCC[n+]1ccn(C)c1.O=S(=O)([N-]S(=O)(=O)C(F)(F)F)C(F)(F)F + CC1CCCCC1
excess molar enthalpy ([1]; 1617 kPa, x2 = 0.0612): 0.0459 ± 0.00191 kcal/mol
excess molar enthalpy ([1]; 1617 kPa, x2 = 0.118): 0.092 ± 0.00382 kcal/mol
excess molar enthalpy ([1]; 1617 kPa, x2 = 0.1708): 0.132 ± 0.0055 kcal/mol
excess molar enthalpy ([1]; 1617 kPa, x2 = 0.2202): 0.166 ± 0.00669 kcal/mol
excess molar enthalpy ([1]; 1617 kPa, x2 = 0.2663): 0.176 ± 0.00717 kcal/mol
excess molar enthalpy ([1]; 1617 kPa, x2 = 0.3096): 0.173 ± 0.00693 kcal/mol
excess molar enthalpy ([1]; 1617 kPa, x2 = 0.3885): 0.154 ± 0.00621 kcal/mol
excess molar enthalpy ([1]; 1617 kPa, x2 = 0.4586): 0.136 ± 0.0055 kcal/mol
excess molar enthalpy ([1]; 1617 kPa, x2 = 0.5213): 0.12 ± 0.00502 kcal/mol
excess molar enthalpy ([1]; 1617 kPa, x2 = 0.6288): 0.0943 ± 0.00382 kcal/mol
excess molar enthalpy ([1]; 1617 kPa, x2 = 0.7176): 0.0722 ± 0.00287 kcal/mol
excess molar enthalpy ([1]; 1617 kPa, x2 = 0.7922): 0.0525 ± 0.00217 kcal/mol
excess molar enthalpy ([1]; 1617 kPa, x2 = 0.884): 0.0269 ± 0.00112 kcal/mol

O [water] + CCCCCCn1cc[n+](C)c1.O=S(=O)([O-])C(F)(F)F
activity coefficient ([3]; 303.15 K): 1.31 ± 0.09
activity coefficient ([3]; 313.15 K): 1.04 ± 0.06
activity coefficient ([3]; 323.15 K): 0.82 ± 0.05
activity coefficient ([3]; 333.15 K): 0.64 ± 0.05

CC1CCCCC1 [methylcyclohexane] + CCCCCC[n+]1ccn(C)c1.O=S(=O)([N-]S(=O)(=O)C(F)(F)F)C(F)(F)F
activity coefficient ([2]; 303.15 K, dilutor technique): 6.83 ± 0.61
activity coefficient ([2]; 313.15 K, dilutor technique): 6.59 ± 0.59
activity coefficient ([2]; 323.15 K, dilutor technique): 6.3 ± 0.56
activity coefficient ([2]; 333.15 K, dilutor technique): 6.06 ± 0.54

O [water] + CCCC[N+]1(C)CCCC1.O=S(=O)([O-])C(F)(F)F
activity coefficient ([2]; 313.15 K, dilutor technique): 0.67 ± 0.05
activity coefficient ([2]; 323.15 K, dilutor technique): 0.56 ± 0.05
activity coefficient ([2]; 333.15 K, dilutor technique): 0.51 ± 0.04
activity coefficient ([2]; 343.15 K, dilutor technique): 0.44 ± 0.04

CC1CCCCC1 [methylcyclohexane] + CCCCCCn1cc[n+](C)c1.O=S(=O)([O-])C(F)(F)F
activity coefficient ([2]; 303.15 K, dilutor technique): 10.5 ± 0.95
activity coefficient ([2]; 313.15 K, dilutor technique): 10.2 ± 0.9
activity coefficient ([2]; 323.15 K, dilutor technique): 9.77 ± 0.88
activity coefficient ([2]; 333.15 K, dilutor technique): 9.49 ± 0.85
